Data taken from BindingDB's records for patent US20240072809 (Avilar Therapeutics, 2024).

Target: T1, Asialoglycoprotein receptor 1 (Homo sapiens, UniProt P07306)
T1 sequence (P07306 whole entry): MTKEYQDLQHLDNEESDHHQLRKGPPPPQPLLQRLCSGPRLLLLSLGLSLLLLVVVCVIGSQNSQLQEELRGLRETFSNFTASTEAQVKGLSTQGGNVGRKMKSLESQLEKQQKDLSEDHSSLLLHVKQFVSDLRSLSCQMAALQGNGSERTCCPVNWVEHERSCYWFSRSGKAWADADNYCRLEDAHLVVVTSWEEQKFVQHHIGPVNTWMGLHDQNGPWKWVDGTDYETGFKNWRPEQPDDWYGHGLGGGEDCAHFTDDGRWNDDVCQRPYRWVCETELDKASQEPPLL
Assay: ASGPR Measured Using Surface Plasmon Resonance (SPR)
Protocol: Recombinant ASGPR protein is first biotinylated using Maleimide-PEG2-biotin reagent (Pierce, 19-fold molar excess) in phosphate-buffered saline (PBS) solution overnight at 4° C. Excess amount of biotin in the reaction mixture is removed by Zeba desalting columns (Thermo). Biotinylation is confirmed by mass spectroscopic analysis of ASGPR. Biotinylated ASGPR is then immobilized on SA sensor chips (GE Healthcare) with an immobilization level ranging from 1500-3000 resonance units (RU). The running buffer is 50 mM Tris, pH7.5, 150 mM NaCl, 50 mM CaCl2), 0.01% P20, 3% DMSO. […] The compounds are diluted 3 folds with total 8 concentration points. Solutions containing serially diluted compounds are injected at a flow rate of 50 μL/min for 60 sec followed by a 180 sec dissociation phase for each concentration. Data is processed using the analysis software in Biacore 8K to perform background subtraction, double referencing and solvent correction.

Compound | Kd [µM]
OC[C@H]1OC[C@H](Nc2nc(Cl)cs2)[C@@H](O)[C@H]1O [US20240072809, Compound A99] | > 1000
OCCC[C@@H]1CO[C@H](CO)[C@H](O)[C@@H]1O [US20240072809, Compound A162] | > 1000
OC[C@H]1OC[C@H](Nc2nc(-c3ccncc3)ns2)[C@@H](O)[C@H]1O [US20240072809, Compound A319] | < 100

Further lines, results first:

Kd [µM] | Compound
< 100 | CO[C@@H]1O[C@H](CO)[C@H](O)[C@H](O)[C@H]1Nc1ncns1 [US20240072809, Compound A110]
< 100 | OC[C@H]1OC[C@@H](Nc2ncns2)[C@@H](O)[C@H]1O [US20240072809, Compound A147]
> 20 | OC[C@H]1OC[C@@H](Nc2nc(Cl)cs2)[C@@H](O)[C@H]1O [US20240072809, Compound A148]
